pIC50: −log10 of the molar value. Like-named read-outs stand apart in the source and are kept apart here.
Tests used:
[1] = tested on: CT26 colon-cancer cells; test: Subcutaneous CT26 colon-cancer tumors in Balb/c mice; assay type: in vivo; details: compound 5 10 mg/kg, DZNEP 1 mg/kg, FIG. 2A
Method: A. Tumor progression in Balb/c mice subcutaneously injected with CT26 cells (0.5×10^6). After 3 days, treatment with compound 5 (10 mg/kg) or DMSO was given by intraperitoneal injection every other day starting 3 days after the first injection. Two groups of mice (with either DMSO or compound 5 treatment) were treated with anti-PD1 antibody injected subcutaneously every other day. Number of mice for each treatment group=10.
(§1) 0.5×10^6 cells in 100 μL PBS were subcutaneously injected into 4-week-old female C57Bl/6 mice (for the B16 experiment) or Balb/c mice (for the CT26 experiments). DZNEP is an inhibitor of the catalytic activity of EZH2 and was used as an additional control.
1 mg/kg DZNEP and 10 mg/kg compound 5 were used for the subsequent experiments. Tridimensional measurements were performed daily, and the tumor volume was expressed as mm^3. […] The T-cells were stained with CD8, perforin, and granzyme B antibodies and analyzed immediately by flow cytometry using a MACS-Quant Analyzer (Miltenyi Biotec, Paris, France).
Tumors were extracted and disaggregated using […] strainers. […] FoxP3 was detected by cell intranuclear staining employing the BD Pharmingen™ Mouse Foxp3 Buffer Set according to the manufacturer's instructions. IFN-γ, perforin, and granzyme B were detected by intracellular staining using the BD Cytofix/Cytoperm™ Kit following the manufacturer's instructions. […]

[2] = tested on: CT26 cells; test: Spleen CD3+ T-cells of treated mice cocultured with naïve CT26 cells; assay type: in vivo; details: coculture 24 or 48 h
Method: 1 mg/kg DZNEP and 10 mg/kg compound 5 were used for the subsequent experiments. Tridimensional measurements were performed daily, and the tumor volume was expressed as mm^3. […] Freshly collected tumors were dissociated and stained for immune-cell infiltrate using a flow cytometer. CD3+ T cells from spleen tissue were negatively selected using myltennyi magnetic columns and put in contact with naïve CT26 cells for 24 or 48 h. The CT26 cells were subsequently stained with DAPI (0.5 μg/ml, Molecular Probes, Grand Island, N.Y., USA). The T-cells were stained with CD8, perforin, and granzyme B antibodies and analyzed immediately by flow cytometry using a MACS-Quant Analyzer (Miltenyi Biotec, Paris, France).
Spleens were extracted and disaggregated, and the cells were resuspended in PBS. T-cells were isolated by CD3 negative selection to avoid activation. […] The flow-through containing the enriched fraction of CD3 cells was collected and analyzed by flow cytometry to determine the yield of the enrichment (CD3 cells constituted a minimum 70% of the total cells collected).

[3] = tested on: EZH2 transcription; test: Ability to decrease EZH2 mRNA level in A375 (dose-response, quantitative PCR); assay type: cell-based; details: Homo sapiens, A-375, 96 h; A375 cells, incubated 4 days; read-out: IC50 (concentration necessary to obtain 50% of EZH2 transcription activity)
Method: Typically, 30000-50000 cells were plated in six-well culture plates and incubated 24 h later with increasing concentration of NIK inhibitors or vehicle. Cells were incubated with the inhibitors for 4 days prior to harvesting for RNA extraction and PCR. Total RNA was isolated from cells using the RNAeasy minikit (Qiagen) according to the manufacturer's procedure. Reverse transcription was performed using the AMV reverse transcription system (Promega), and quantitative PCR was performed with Power Sybr green (Applied Biosystems, Life Technologies, Grand Island, N.Y.) following the manufacturer's instructions. The PCR was carried out on a Step One plus Real-Time PCR system (Applied Biosystems). All analyses were done in triplicate, and a melting curve analysis was performed to control for product quality and specificity. Expression levels were calculated using the comparative method of relative quantification, with SB34 as a normalizer. The data were analyzed for statistical significance using Student's t-test. The results are presented as the mean±SEM relative to the control. Primers were obtained from primer bank or primer depot (http://pga.mgh.harvard.edu/primerbank/, https://primerdepot.nci.nih.gov), and their specificity was verified using primer blast (http://www.ncbi.nlm.nih.gov/tools/primer-blast/).
Here IC50 represents the concentration necessary to obtain 50% of EZH2 transcription activity.

[4] = tested on: A375 cells; test: A375 cell proliferation assay (trypan blue exclusion); assay type: cell-based; details: Homo sapiens, A-375, treated/untreated cell number; for activity at 1 µM: A375, 1 μM; for activity at 10 µM: A375, 10 μM
Method: Cells were counted using a Malassez chamber. The average and standard deviation were calculated from triplicate experiments. Antiproliferative effects were evaluated by trypan blue exclusion assay. Briefly, cells were seeded into 12-well plate and grown in media supplemented with indicated compound at 1 or 10 μM for 48 h or 96 h. Cells were washed with PBS and detached by trypsinization, collected and colored by trypan blue. Dead and living cells were counted and proliferation was calculated as follow: Proliferation (%)=[(treated cell number/untreated cells number)*100].

[5] = tested on: normal human fibroblast; test: Fibroblast viability assay (trypan blue exclusion); assay type: cell-based; details: 96 h
Method: (§2) Cell viability effects were evaluated by trypan blue exclusion assay. Briefly, cells were seeded into 12-well plate and grown in media supplemented with indicated compound at 10 μM for 96 h. Cells were washed with PBS and detached by trypsinization, collected and colored by trypan blue. Dead and living cells were counted and cell viability was calculated as follow: Viability (%)=100−[(dead cell number/total cells)*100].

[6] = tested on: normal human melanocyte; test: Melanocyte viability assay (trypan blue exclusion); assay type: cell-based; details: 96 h
Method: as §2

[7] = tested on: normal human melanocytes or fibroblasts; test: Proliferation of normal human melanocytes or fibroblasts; assay type: cell-based
[8] = tested on: B16 melanoma cells; test: Established subcutaneous B16 melanoma in C57Bl6 mice; assay type: in vivo
Method: FIG. 3. Compound 5 treatment is effective when used alone in reducing tumor growth in vivo and potentiates the anti-PD1 immune response in C57Bl6 mice subcutaneously injected with B16 melanoma cells. B16 cells were injected subcutaneously and the tumors were let to grow until an average volume of 100 mm^3 was reached. The mice were then sorted into four groups with similar average tumor volume and standard deviation. Treatment with compound 5 (10 mg/kg) or control (DMSO) was given by intraperitoneal injection every day. Anti-PD1 antibodies (125 μg/mouse) was given every other day alone or combined with daily injection of compound 5. Number of mice for each treatment group=8.
as §1
The inventors then asked whether compound 5 was able to increase the survival rate of mice with already established tumor and, if that was the case, also in this situation was able to synergize with anti-PD1 treatment. They thus decided to use the model B16 melanoma cells in C57Bl6 mice. B16 cells were again injected subcutaneously and the tumors were let to grow until an average volume of 100 mm3 was reached. […]

[9] = Tolerability in treated CT26 tumor-bearing mice; assay type: in vivo; details: 10 mg/kg intraperitoneal
Method: In order to evaluate the new approach in different types of cancer, compound 5 was tested in colorectal cancer cells. CT26 cells were subcutaneously injected into syngeneic mice. After 3 days, the mice were treated intraperitoneally with DZNEP, compound 5, and anti-PD1 as monotherapies and combined. Additional treatments in which the mice received DZNEP or compound 5 plus anti-PD1 with an anti-CD8 antibody added to neutralize the T-cell response were included. […] Signs of tumor regression and tumor-free mice were even observed. […] The number of M1 macrophages and the percentage of M1 macrophages among the total macrophage population were increased in all the treated mice, especially in the mice that received the combination treatments (FIG. 2C). Each of the treatments increased the numbers and activation of DCs and the numbers of CD8+ and CD4+ cells infiltrating the tumors (FIG. 2D). […] Finally, CD3+ T-cells were isolated by negative selection from the spleens of the treated mice and cocultured with naïve CT26 cells.

| Structure (SMILES) | growth of the CT26 tumors [1] | killing of naïve CT26 cells by T-cells isolated from treated mice [2] | pIC50 [3] | activity at 1 µM ([4]; 48 h, read-out: Proliferation (%) At 1 μM - 48 H) | activity at 1 µM ([4]; 96 h, read-out: Proliferation (%) At 1 μM - 96 H) | activity at 10 µM ([4]; 48 h, read-out: Proliferation (%) At 10 μM - 48 H) | activity at 10 µM ([4]; 96 h, read-out: Proliferation (%) At 10 μM - 96 H) | Viability (%) at 10 μM Fibroblast [5] | Viability (%) at 10 μM Melanocyte [6] | proliferation of normal human melanocytes or fibroblasts [7] | death dependent from treatment ([8]; B16 experiment) | median survival ([8]; days from injection, treatment started at tumor volume 100 mm3, control 13 days) | clinical signs of toxicity [9] | liver enzymes in the blood [9] | liver weight and systemic glycemia compared to the other mice [9] |
| --- | --- | --- | --- | --- | --- | --- | --- | --- | --- | --- | --- | --- | --- | --- | --- |
| Nc1nccc2c1ncn2C1C=C(CO)C(O)C1O (stereo not drawn) [DZNEP] | significantly reduced | more effective in killing CT26 cells |  |  |  |  |  |  |  |  |  |  |  |  |  |
| COc1ccc(Nc2ccnc3cc(Cl)ccc23)cc1 [Compound 5, 4-((4-methoxyphenyl)amino)-7-chloroquinolinium chloride] |  |  | 5.30 | 91% | 77.1% | 67.5% | 58.1% | 98.6% | 99.5% | Neither treatment had any effect | no death dependent from compound 5 treatment was observed | 20 days | no clinical signs of toxicity | remained in the normal range | similar |
